Assay results as given in US20240408222A1, “COMPOUNDS, PHARMACEUTICAL COMPOSITIONS, AND METHODS FOR THE TREATMENT, PREVENTION, OR MANAGEMENT OF HYPERPRO[…]” (VINCERX PHARMA GMBH, priority 2021, published 2024).

Legend:
[1] = test system: 786-O; assay: Cytotoxicity in vitro (MTT) in presence/absence of elastase; format: cell-based, human; settings: 72 h
Description: (§1) Cultivation of cells was performed according to standard procedures with the media recommended by the provider. The cells, in a total volume of 100 μL, were seeded in a 96-well plate with a white bottom (#3610). After a 24 h incubation period at 37° C. and […], the medium was exchanged by adding 90 μL fresh medium. The treatment started by adding the test compound in 10 μL of culture medium to the cells in triplicates. Concentrations ranging from 10^−5 M to 10^−13 M were chosen. Two identically treated sets of samples were prepared. One set was treated with the test compound alone, whereas to the second set the compound and 10 nM elastase was added followed by a 72 h incubation period at 37° C. and […]. The proliferation was detected using the MTT assay (ATCC). At the end of the incubation period the MTT reagent was added to all samples for 4 h. Lysis of the cells followed by addition of the detergent was done overnight. The formed dye was detected at 570 nm. The proliferation of untreated but otherwise identically handled cells was define as the 100% value.

[2] = test system: HT29; assay: as above; format: cell-based, human; settings: 72 h
Description: as §1

[3] = test system: NCI H292; assay: as above; format: cell-based, human; settings: 72 h
Description: as §1

[4] = test system: SUM149; assay: as above; format: cell-based; settings: 72 h
Description: as §1

[5] = test system: 786-O; assay: Cytotoxicity assay (Version 2, automated, AC50) with/without neutrophil elastase; format: cell-based, human; settings: Version 2, activity concentration at −50%
Summary of the method: (§2)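 Cells were treated in triplicate with compound at 10^−5 M to 10^−13 M, with or without 10 nM elastase, for 72 h at 37 °C. Viability was read by MTT at 570 nm, normalized to cell-free medium (−100%) and DMSO-treated cells (0%); AC50 at −50% from 4-parameter Hill fit.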

[6] = test system: HT29; assay: as above; format: cell-based, human; settings: Version 2, activity concentration at −50%
Summary of the method: as §2

[7] = test system: NCI H292; assay: as above; format: cell-based, human; settings: Version 2, activity concentration at −50%
Summary of the method: as §2

[8] = test system: SUM149; assay: as above; format: cell-based; settings: Version 2, activity concentration at −50%
Summary of the method: as §2

[9] = with (+) 10 nM neutrophil elastase
[10] = without (−) neutrophil elastase
[11] = HT29, with (+) 10 nM neutrophil elastase
[12] = HT29, without (−) neutrophil elastase
[13] = NCI H292, with (+) 10 nM neutrophil elastase
[14] = NCI H292, without (−) neutrophil elastase
[15] = SUM149, with (+) 10 nM neutrophil elastase
[16] = SUM149, without (−) neutrophil elastase
[17] = HT29, with (+) neutrophil elastase
[18] = NCI H292, with (+) neutrophil elastase
[19] = SUM149, with (+) neutrophil elastase

SMILES | IC50 [1, 9] [nM] | IC50 [1, 10] [nM] | IC50 [2, 11] [nM] | IC50 [2, 12] [nM] | IC50 [3, 13] [nM] | IC50 [3, 14] [nM] | IC50 [4, 15] [nM] | IC50 [4, 16] [nM] | AC50 ([5]; with (+) neutrophil elastase) [nM] | AC50 [5, 10] [nM] | AC50 [6, 17] [nM] | AC50 [6, 12] [nM] | AC50 [7, 18] [nM] | AC50 [7, 14] [nM] | AC50 [8, 19] [nM] | AC50 [8, 16] [nM]
CCCNC(=O)Nc1cccc(S(=O)(=O)Nc2cccc([C@@H](CC(=O)O)NC(=O)Nc3ccc(NC(=O)NCCOCCOCCOCCC(=O)N[C@@H](CC(=O)O)C(=O)N4CCC[C@H]4C(=O)N[C@H](C(=O)N=S(C)(=O)Cc4cccc(Nc5ncnc(-c6ccc(F)cc6OC)n5)c4)C(C)C)cc3)c2)c1 (relative stereo) [Compound 1, disodium 1-[(2S)-2-(carboxylatomethyl)-17-{4-[({(1R)-2-carboxylato-1-[3-({3-[(propylcarbamoyl)amino]benzene-1-sulfonyl}amino)phenyl]ethyl}carbamoyl)amino]anilino}-4,17-dioxo-7,10,13-trioxa-3,16-diazaheptadecanan-1-oyl]-L-prolyl-N—[(R*)-[(3-{[4-(4-fluoro-2-methoxyphenyl)-1,3,5-triazin-2-yl]amino}phenyl)methyl](methyl)oxo-lambda^6-sulfanylidene]-L-valinamide] | 11 to 100 | 11 to 100 | 11 to 100 | > 100 | 11 to 100 | > 100 | 11 to 100 | > 100 | > 1000 | > 1000 | > 1000 | > 1000 | 11 to 100 | > 1000 | 100 to 1000 | > 1000
CCCNC(=O)Nc1cccc(S(=O)(=O)Nc2cccc([C@@H](CC(=O)O)NC(=O)Nc3ccc(NC(=O)NCCOCCOCCOCCC(=O)N[C@@H](CC(=O)O)C(=O)N4CCC[C@H]4C(=O)N[C@H](C(=O)N=S(C)(=O)Cc4ccnc(Nc5cc(-c6ccc(F)cc6OC)c(F)cn5)c4)C(C)C)cc3)c2)c1 (relative stereo) [Compound 2, disodium 1-[(2S)-2-(carboxylatomethyl)-17-{4-[({(1R)-2-carboxylato-1-[3-({3-[(propylcarbamoyl)amino]benzene-1-sulfonyl}amino)phenyl]ethyl}carbamoyl)amino]anilino}-4,17-dioxo-7,10,13-trioxa-3,16-diazaheptadecanan-1-oyl]-L-prolyl-N—[(S*)-[(2-{[5-fluoro-4-(4-fluoro-2-methoxyphenyl)pyridin-2-yl]amino}pyridin-4-yl)methyl](methyl)oxo-lambda^6-sulfanylidene]-L-valinamide] | 11 to 100 | > 100 | 1.1 to 10 | > 100 | 11 to 100 | > 100 | 11 to 100 | > 100 | 100 to 1000 | 100 to 1000 | 100 to 1000 | 100 to 1000 | 100 to 1000 | > 1000 | 100 to 1000 | 100 to 1000
CCCNC(=O)Nc1cccc(S(=O)(=O)Nc2cccc([C@@H](CC(=O)O)NC(=O)Nc3ccc(NC(=O)NCCN(C)CCN(C)CCN(C)CC(=O)N[C@@H](CC(N)=O)C(=O)N4CCC[C@H]4C(=O)N[C@H](C(=O)N=[S@@](C)(=O)Cc4cc5cc(c4)OCCCCCNc4cc(ccc4F)-c4nc(ncc4F)N5)C(C)C)cc3)c2)c1 (relative stereo) [Compound 15] | ≤ 1 | > 100 | ≤ 1 | > 100 | ≤ 1 | 11 to 100 | ≤ 1 | 11 to 100 | 100 to 1000 | 100 to 1000 | 100 to 1000 | 100 to 1000 | 11 to 100 | 100 to 1000 | 100 to 1000 | 100 to 1000
CCCNC(=O)Nc1cccc(S(=O)(=O)Nc2cccc([C@H](CC(=O)O)NC(=O)Nc3ccc(NC(=O)NCCN(C)CCN(C)CCN(C)CC(=O)N[C@@H](CC(N)=O)C(=O)N4CCC[C@H]4C(=O)N[C@H](C(=O)N=[S@@](C)(=O)Cc4cc5cc(c4)OCCCCCNc4cc(ccc4F)-c4nc(ncc4F)N5)C(C)C)cc3)c2)c1 (relative stereo) [Compound 16] | 1.1 to 10 | > 100 | ≤ 1 | > 100 | ≤ 1 | 11 to 100 | 1.1 to 10 | 11 to 100 | 11 to 100 | > 1000 | ≤ 10 | > 1000 | 11 to 100 | 100 to 1000 | 11 to 100 | > 1000
CCCNC(=O)Nc1cccc(S(=O)(=O)Nc2cccc([C@@H](CC(=O)O)NC(=O)Nc3ccc(NC(=O)NCCN(C)CCN(C)CCN(C)CC(=O)N[C@@H](CC(N)=O)C(=O)N4CCC[C@H]4C(=O)N[C@H](C(=O)N=[S@](C)(=O)Cc4cc5cc(c4)OCCCCCNc4cc(ccc4F)-c4nc(ncc4F)N5)C(C)C)cc3)c2)c1 (relative stereo) [Compound 17] | 1.1 to 10 | > 100 | ≤ 1 | 11 to 100 | ≤ 1 | 11 to 100 | 1.1 to 10 | 11 to 100 | ≤ 10 | 100 to 1000 | ≤ 10 | > 1000 | ≤ 10 | 100 to 1000 | ≤ 10 | 100 to 1000
CCCNC(=O)Nc1cccc(S(=O)(=O)Nc2cccc([C@@H](CC(=O)O)NC(=O)Nc3ccc(NC(=O)N(C)CCN(C)CCN(C)CC(=O)N[C@@H](CC(N)=O)C(=O)N4CCC[C@H]4C(=O)N[C@H](C(=O)N=[S@@](C)(=O)Cc4ccnc(Nc5cc(-c6ccc(F)cc6OC)c(F)cn5)c4)C(C)C)cc3)c2)c1 [Compound 4, N-{2-[{2-[({4-[({(1R)-2-Carboxy-1-[3-({3-[(propylcarbamoyl)amino]benzene-1-sulfonyl}amino)phenyl]ethyl}carbamoyl)amino]phenyl}carbamoyl)(methyl)amino]ethyl} (methyl)amino]ethyl}-N-methylglycyl-L-asparaginyl-L-prolyl-N—[(S)-[(2-{[5-fluoro-4-(4-fluoro-2-methoxyphenyl)pyridine-2-yl]amino}pyridin-4-yl)methyl](methyl)oxo-lambda^6-sulfanylidene]-L-valinamide] | 11 to 100 | > 100 | 11 to 100 | > 100 | 11 to 100 | > 100 | 11 to 100 | > 100 | 11 to 100 | > 1000 | 100 to 1000 | > 1000 | > 1000 | > 1000 | 100 to 1000 | > 1000
